In patent US20230263914A1, “BENZENE RING-CONTAINING GLUCOSE DERIVATIVE AND USE THEREOF” (priority 2020, published 2023):

What was measured:
[1] = Determination of lipid-water partition coefficient (n-octanol/PBS pH 7.4); type: physicochemical; details: n-octanol / PBS 0.025 M
Procedure: A 2 mL centrifuge tube was added with 100 µL (10µCi) of a labeling solution, then added with 950 µL of n-octanol and 850 µL of phosphate buffer solution (PBS, 0.025 M, pH=7.4). The 2 mL centrifuge tube was subjected to vortex for 3 min (2,500 rpm) and standing until the reaction solution was layered, and then centrifuged at 9,000 rpm for 5 min. Three samples (each for 100 µL) were collected from each of the two phases, and placed in γ-counter for the determination of radioactive counting. The lipid-water partition coefficient (P) was calculated by Organic phase radioactive counting/ water phase radioactive counting, and was usually expressed as Log P. The log P values of the radioactive compounds provided in Examples 1-4 were shown in Table 3.

[2] = tested on: S180 tumor; test: Biodistribution in tumor-bearing mice; type: in vivo; details: for Blood / Bone / Heart / Kidney / Liver / Lung / Muscle / Small intestine / Spleen / Thyroid / Tumor / Tumor/blood ratio / Tumor/muscle ratio: i.v., mice bearing S180 tumor
Procedure: The mice bearing S180 tumors were injected intravenously via the tail vein respectively with the solutions (0.1 mL, 370 kBq) containing the radioactive drugs of Examples 1-4. The mice bearing S180 tumors were sacrificed by decapitation at different time points (30 min, 120 min) after the injection (5 mice for each time point). After dissection, the heart, liver, lung, kidney, spleen, bone, muscle, small intestine, blood and tumors were harvested, and measured for radioactivity with the γ-counter. The biodistribution individual organs or tissues was expressed as the percentage of the injected dose per gram of organ or tissue (% ID/g).

[3] = 120 min, mean ± SD, listed as 99mTc-4-CNPEDG

| Structure (SMILES) | Blood ([2]; 30 min, n=5, mean ± SD) [% ID/g] | Bone ([2]; 30 min, n=5, mean ± SD) [% ID/g] | Heart ([2]; 30 min, n=5, mean ± SD) [% ID/g] | Kidney ([2]; 30 min, n=5, mean ± SD) [% ID/g] | Liver ([2]; 30 min, n=5, mean ± SD) [% ID/g] | Lung ([2]; 30 min, n=5, mean ± SD) [% ID/g] | Muscle ([2]; 30 min, n=5, mean ± SD) [% ID/g] | Small intestine ([2]; 30 min, n=5, mean ± SD) [% ID/g] | Spleen ([2]; 30 min, n=5, mean ± SD) [% ID/g] | Thyroid ([2]; 30 min, n=5, mean ± SD) [%ID/g] | Tumor ([2]; 30 min, n=5, mean ± SD) [% ID/g] | Tumor/blood ratio ([2]; 30 min, n=5, mean ± SD) | Tumor/muscle ratio ([2]; 30 min, n=5, mean ± SD) | Blood ([2]; 120 min, mean ± SD) [% ID/g] | Bone ([2]; 120 min, mean ± SD) [% ID/g] | Heart ([2]; 120 min, mean ± SD) [% ID/g] | Kidney ([2]; 120 min, mean ± SD) [% ID/g] | Liver ([2]; 120 min, mean ± SD) [% ID/g] | Lung ([2]; 120 min, mean ± SD) [% ID/g] | Muscle ([2]; 120 min, mean ± SD) [% ID/g] | also measured |
| --- | --- | --- | --- | --- | --- | --- | --- | --- | --- | --- | --- | --- | --- | --- | --- | --- | --- | --- | --- | --- | --- |
| O=C(Cc1ccc(C[N+]#[C][99Tc+]([C]#[N+]Cc2ccc(CC(=O)NC3C(O)OC(CO)C(O)C3O)cc2)([C]#[N+]Cc2ccc(CC(=O)NC3C(O)OC(CO)C(O)C3O)cc2)([C]#[N+]Cc2ccc(CC(=O)NC3C(O)OC(CO)C(O)C3O)cc2)([C]#[N+]Cc2ccc(CC(=O)NC3C(O)OC(CO)C(O)C3O)cc2)[C]#[N+]Cc2ccc(CC(=O)NC3C(O)OC(CO)C(O)C3O)cc2)cc1)NC1C(O)OC(CO)C(O)C1O (stereo not shown) [^99mTc-4-CNMBDG] | 4.08 ± 0.57 | 3.05 ± 0.62 | 2.67 ± 0.41 | 10.18 ± 1.28 | 3.00 ± 0.55 | 5.89 ± 0.59 | 1.96 ± 0.50 | 4.04 ± 0.87 | 2.24 ± 0.38 | 0.07 ± 0.01 | 6.46 ± 1.86 | 1.57 ± 0.36 | 3.52 ± 1.35 | 0.64 ± 0.22 | 1.27 ± 0.35 | 1.31 ± 0.18 | 7.37 ± 1.71 | 2.43 ± 0.49 | 1.31 ± 0.44 | 0.86 ± 0.15 | logP ([1]; n-octanol/phosphate buffer solution (PBS)): -3.1 ± 0.036; Small intestine ([2]; 120 min, mean ± SD): 1.65 ± 0.43 % ID/g; Spleen ([2]; 120 min, mean ± SD): 1.28 ± 0.34 % ID/g; Thyroid ([2]; 120 min, mean ± SD): 0.03 ± 0.01 %ID/g; Tumor ([2]; 120 min, mean ± SD): 6.22 ± 1.77 % ID/g; Tumor/blood ratio ([2]; 120 min, mean ± SD): 10.06 ± 1.54; Tumor/muscle ratio ([2]; 120 min, mean ± SD): 7.14 ± 1.11; tumor uptake compared with 99mTc-CNPEDG ([2]; 120 min p.i., in words): higher tumor uptake; clearance in blood ([2]; compared with 99mTc-CNPEDG, in words): faster clearance in blood |
| O=C(NC1C(O)OC(CO)C(O)C1O)c1ccc(CC[N+]#[C][99Tc+]([C]#[N+]CCc2ccc(C(=O)NC3C(O)OC(CO)C(O)C3O)cc2)([C]#[N+]CCc2ccc(C(=O)NC3C(O)OC(CO)C(O)C3O)cc2)([C]#[N+]CCc2ccc(C(=O)NC3C(O)OC(CO)C(O)C3O)cc2)([C]#[N+]CCc2ccc(C(=O)NC3C(O)OC(CO)C(O)C3O)cc2)[C]#[N+]CCc2ccc(C(=O)NC3C(O)OC(CO)C(O)C3O)cc2)cc1 (stereo not shown) [^99mTc-4-CNPeDG] | 2.42 ± 0.16 | 1.10 ± 0.07 | 1.15 ± 0.04 | 7.32 ± 0.90 | 0.95 ± 0.03 | 2.80 ± 0.13 | 0.68 ± 0.05 | 1.38 ± 0.20 | 0.70 ± 0.02 | 0.02 ± 0.00 | 2.80 ± 0.04 | 1.16 ± 0.09 | 4.16 ± 0.35 | 0.10 ± 0.04 | 0.18 ± 0.03 | 0.15 ± 0.02 | 2.98 ± 0.74 | 0.38 ± 0.08 | 0.23 ± 0.03 | 0.10 ± 0.02 | Log P [1]: -3.593 ± 0.012; Small intestine ([2]; 120 min, mean ± SD): 0.31 ± 0.07 % ID/g; Spleen ([2]; 120 min, mean ± SD): 0.17 ± 0.03 % ID/g; Thyroid ([2]; 120 min, mean ± SD): 0.003 ± 0.001 %ID/g; Tumor ([2]; 120 min, mean ± SD): 0.95 ± 0.21 % ID/g; Tumor/blood ratio ([2]; 120 min, mean ± SD): 10.17 ± 1.95; Tumor/muscle ratio ([2]; 120 min, mean ± SD): 9.69 ± 1.81; Tumor/blood ratio [2, 3]: 3.29 ± 0.12; Tumor/muscle ratio [2, 3]: 5.21 ± 0.50; target/non-target ratio compared with 99mTc-CNPEDG ([2]; 120 min p.i., in words): better target/non-target ratio; tumor uptake compared with 99mTc-CNPEDG ([2]; 120 min p.i., in words): lower tumor uptake; Tumor/lung ratio ([2]; 120 min p.i., mean ± SD): 1.81 ± 0.30 |
